In patent US7847152B2, “Use of tryptophan indole and anthranilate analogs as plant transformation selection agents” (The Board of Trustees of the University of Illinois, priority 2006, dated 2010):
“Also recorded” adds a separate entry of the source.

Experiments:
[1] = system: wild-type (WT) tobacco leaf discs; assay: Leaf callus/shoot formation inhibition, wild-type tobacco leaf discs; type: cell-based, Nicotiana tabacum; conditions: for effectiveness as selection agent among the analogs tested: 9 Trp analogs and 7 indole analogs tested; for callus production of the wild-type / shoot formation of WT leaf discs: 300 μm analog
Protocol: (§1) Leaf callus formation was studied on the nutrient medium described herein using a total of 30 leaf discs at 28° C. under fluorescent light. After 2 weeks, callus formation was measured and after 4 weeks shoot production was recorded.
(§2) Leaf callus/shoot formation was studied on Tobacco Regeneration Medium that was MS basal medium with 88 μM 6-benzyladenine (BA) and 0.5 μM naphthalene acetic acid (NAA) and various concentrations of different Trp and indole analogs using a total of 30 leaf discs (6 mm each in diameter) from either the untransformed wild type (WT) tobacco or the ASA2 expressing transgenic line transformed with pAST-IV vector (line ASTIV) at 28° C. under fluorescent light as described above. Callus formation and shoot production was visually evaluated after 2, 4 and 6 weeks. Seedling growth inhibition was studied as described herein.

[2] = system: tobacco leaf discs bombarded with vector pAST-IV; assay: Selection of plastid transformants (pAST-IV) on analog; type: cell-based, Nicotiana tabacum cv. Havana; conditions: 60 leaf discs bombarded, 6-8 weeks selection
Protocol: DNA preparation, precipitation onto gold particles, and bombardment were performed as described previously (Svab & Maliga P, 1993) using 0.6 μm gold particles (Bio-Rad, Hercules, Calif.) as micro projectiles. Any suitable particle bombardment procedure can be used. Briefly, the plasmid containing the marker gene and a gene of interest are coated onto gold or tungsten microparticles. The coated particles are air dried and loaded on to a particle gun for particle bombardment into the desired tissue. Nicotiana tabacum cv. Havana was used in the experiments. Green calli and shoots resistant to either 7-MT or 4-MI were obtained after 6-8 wks of selection on RMOP medium (Svab et al., 1990) and subjected to three additional rounds of selection for the homoplastomic condition.
Six to eight weeks after bombardment, 28 independent resistant shoots/calli were recovered from 60 leaf discs bombarded with vector pAST-IV. The 28 lines selected directly for 4MI or 7MT resistance were tested by the PCR reaction using either primers specific for ASA2 gene (L40 and L 39) or a primer specific to the ASA2 coding region (L40) and a primer that is located in the plastid genome outside the flanking region of the vector (L29). […] A 815 bp (L40-L39) and a 2.1 kb (L40-L29) fragments were reproducibly detected in 5 transgenic of the 28 in dependent lines (3 from 7MT and 2 from 4 MI). […]

[3] = system: wild-type (WT) tobacco seedlings; assay: Seedling growth inhibition test, wild-type tobacco; type: in vivo, Nicotiana tabacum; conditions: for germination of WT and ASTIV seeds on analog containing medium / WT seedling growth: 75 μm analog; for WT seedling growth: after two weeks
Excerpt: (§3) The concentrations listed in Table 1 are for illustrative purposes and should not be construed as a limited range. Seedling growth inhibition was studied by placing a total of 45 surface-sterilized seeds of either the wild-type (WT) tobacco (Nicotiana tabacum cv. Petit Havana SR1) or the ASA2 expressing transgenic plants previously obtained (Zhang et al., 2001), on Murashige-Skoog medium supplemented with 3% sucrose, vitamins, 0.8% agar and various concentrations of the different analogs (see Table 1). Seed germination and root formation were measured after 2 weeks, at 28° C. under fluorescent light. The analogs listed in Table 1 were obtained from Sigma-Aldrich (St. Louis, Mo.) or Acros Organics (Morris Plains, N.J.).
(§4) A vector pC2ASA2 was used, which contains a full length 2,144-bp AS feedback-insensitive α-subunit (ASA2) cDNA, encoding 616 amino acids including a putative transit peptide and 204 bp of 3′non-coding region driven by the CaMV35S promoter. pC2ASA2 was electroporated into Agrobacterium tumefaciens strain EHA105 and then used for the leaf disc transformation. Shoots of tobacco (Nicotiana tabacum L. cv. Xanthi) plants were maintained as in vitro stock cultures in Magenta boxes containing MS basal medium (Murashige and Skoog 1962) with 2 g 1-1 Gelrite® and leaves from these shoots were sources of explants for transformation. The growth conditions were 16-h photoperiod with a temperature of 28° C., florescent lamps providing a photosynthetic photon flux density of 150 μmol m-2 s-1 at the shelf surface. For segregation tests or for seedling growth inhibition tests on different analogs, 50 seeds/plate were surface sterilized with a solution of distilled water-Clorox (80:20; 1.25% Na hypochlorite) for 20 min containing a few drops of Tween 20™ and then rinsed with sterile water before spreading them on MS basal medium plates containing the appropriate selective agent.

[4] = system: ASA2 expressing transgenic tobacco seedlings; assay: Seedling growth inhibition test, ASA2 expressing transgenic tobacco; type: in vivo, Nicotiana tabacum; conditions: 75 μm analog; for germination and growth of T2 seed of homozygous ASA2 lines: four lines, pC2ASA2 transformants; for transgenic seedling growth: line ASTIV
Excerpt: as §3, with “Seed germination and root formation were measured after 2 weeks, at 28° C. under fluorescent light.” left out
as §4
To test for the segregation of the transgene in the T1 generation, seeds of the transgenic lines were germinated on medium containing either 75 4MI or 75 μm 7MT for 21 days. The ratios of resistant/sensitive seedlings were for most of the lines close to the expected 3:1 ratio confirming a single nuclear site of insertion for the 15 lines tested.

[5] = system: tobacco leaf discs transformed with CaMV35S-ASA2; assay: Selection of A. tumefaciens (pC2ASA2) transformed tobacco leaf discs on analog; type: cell-based, Nicotiana tabacum L. cv. Xanthi; conditions: for resistant plants obtained (total of two experiments): 300 μm on TRM, 150 leaf discs for 4MI, 135 leaf discs for 7MT; for optimal concentration for selection of putative transformants: on TRM
Excerpt: as §4
Leaf discs (6 mm each in diameter) from 20 leaves of WT tobacco were used for each transformation experiment. After 6 weeks of selection on TRM with either 300 μM 4MI or 300 μM 7MT and 500 mg/l timentin to eliminate A. tumefaciens, the shoots regenerating from the callus were isolated and transferred to the Rooting Medium with analogs to initiate root growth. After root induction, the plantlets were transferred into soil and grown to maturity in a greenhouse. The T1 seeds were plated on either 4MI or 7MT for segregation tests and to obtain homozygous lines.
The ASA2 gene driven by the CaMV 35S promoter was transferred into tobacco leaf discs via the A. tumefaciens-mediated transformation method. Putative transformants were selected on TRM using the optimal concentration (300 μm) of 4MI and 7MT for selection. 31 resistant plants were obtained in two different experiments: 21 one on 4MI from a total of 150 leaf discs (10 resistant plants from 80 leaf discs in experiment 1 and 11 resistant plants from 70 leaf discs in experiment 2) and 10 on 7MT from a total of 135 leaf discs (6 resistant plants from 70 leaf discs in experiment 1 and 4 resistant plants from 65 leaf discs in experiment 2). […] GUS activity was assessed histochemically in PCR-GUS positive lines using leaf pieces confirming the results obtained with the molecular screening. When the transgenic plants were tested for ASA2 gene expression by RT-PCR an 815-bp fragment was amplified from total RNA extracted from young leaves from 15 transgenic lines while no fragment was detected in the WT. […]

[6] = system: tobacco shoot producing leaf discs; assay: Discrimination between wild type and ASA2 expressing tobacco shoot producing leaf discs; type: cell-based
Protocol: Various concentrations of the different analogs were tested on maize, soy bean, and tobacco that includes growth inhibition test of germination, leaf callus formation test, and other growth inhibition tests (FIGS. 15-38).
as §2

[7] = system: Arabidopsis germinating seedlings; assay: Discrimination between wild type and ASA2 expressing Arabidopsis germinating seedlings; type: in vivo; conditions: Arabidopsis seeds
[8] = system: ASA2 expressing transgenic tobacco (line ASTIV); assay: Leaf callus formation and growth of ASA2 expressing (5MT resistant) tobacco plants; type: cell-based, Nicotiana tabacum; conditions: 300 μm analog; for callus and shoot formation of ASA2 expressing leaf discs: after four/six weeks
Excerpt: as §3, §1, §2

Cc1cccc2c(CC(N)C(=O)O)c[nH]c12 (racemic) [7MT, 7-methyl-DL-tryptophan]
effectiveness as selection agent among the analogs tested [1]: most effective
effectiveness as selection agent among the analogs tested ([1]; listed as 7-MT): enhanced selection properties
callus production of the wild-type [1]: greater inhibition; also recorded: inhibited
shoot formation of WT leaf discs [1]: little shoot formation
PCR-confirmed transgenic lines among 28 independent resistant lines [2]: 3
germination of WT and ASTIV seeds on analog containing medium [3]: germinate almost equally
WT seedling growth [3]: started to bleach, ceased to grow and eventually died
growth of the wild-type seedlings/roots ([3]; 300 μm analog): completely inhibited
germination and growth of T2 seed of homozygous ASA2 lines [4]: all 100 seeds germinated and grew normally
transgenic seedling growth [4]: grew well
transgenic seedling development after six weeks [4]: growing with normal true leaf development
resistant plants obtained (total of two experiments) [5]: 10
optimal concentration for selection of putative transformants [5]: 300 μm
concentration for discriminating between wild type and ASA2 expressing tobacco shoot producing leaf discs [6]: 7MT 400 μM
concentration for discriminating between wild type and ASA2 expressing Arabidopsis germinating seedlings [7]: 7MT 300 μM
growth of the ASA2 expressing (5-MT resistant) plants [8]: not affected
callus and shoot formation of ASA2 expressing leaf discs [8]: formed callus and produced shoots

CC(=O)c1c[nH]c2ccccc12 [3-acetylI]
concentration for discriminating between wild type and ASA2 expressing tobacco shoot producing leaf discs [6]: 3-acetylI 500 μM

Fc1cccc2[nH]ccc12 [4FI, 4-Fluoroindole]
concentration for discriminating between wild type and ASA2 expressing Arabidopsis germinating seedlings [7]: 4FI 70 μM

Cc1cccc2[nH]ccc12 [4MI, 4-Methylindole]
effectiveness as selection agent among the analogs tested [1]: most effective
effectiveness as selection agent among the analogs tested ([1]; listed as 4-MI): enhanced selection properties
callus production of the wild-type [1]: greater inhibition; also recorded: inhibited
shoot formation of WT leaf discs [1]: little shoot formation
PCR-confirmed transgenic lines among 28 independent resistant lines [2]: 2
germination of WT and ASTIV seeds on analog containing medium [3]: germinate almost equally
WT seedling growth [3]: started to bleach, ceased to grow and eventually died
growth of the wild-type seedlings/roots ([3]; 300 μm analog): completely inhibited
wild-type plant germination ([3]; 300 μm analog): inhibited
germination and growth of T2 seed of homozygous ASA2 lines [4]: all 100 seeds germinated and grew normally
transgenic seedling growth [4]: grew well
transgenic seedling development after six weeks [4]: growing with normal true leaf development
resistant plants obtained (total of two experiments) [5]: 21
optimal concentration for selection of putative transformants [5]: 300 μm
concentration for discriminating between wild type and ASA2 expressing tobacco shoot producing leaf discs [6]: 4MI 300 μM
growth of the ASA2 expressing (5-MT resistant) plants [8]: not affected
callus and shoot formation of ASA2 expressing leaf discs [8]: formed callus and produced shoots

Cc1cccc2[nH]cc(C[C@H](N)C(=O)O)c12 [4MT, 4-methyltrypthophan]
concentration for discriminating between wild type and ASA2 expressing Arabidopsis germinating seedlings [7]: 4MT 70 μM

Nc1ccc(F)cc1C(=O)O [5FA]
concentration for discriminating between wild type and ASA2 expressing tobacco shoot producing leaf discs [6]: 5FA 150 μM

Fc1ccc2[nH]ccc2c1 [5FI, 5-Fluoroindole]
concentration for discriminating between wild type and ASA2 expressing Arabidopsis germinating seedlings [7]: 5FI 20 μM

N[C@@H](Cc1c[nH]c2ccc(O)cc12)C(=O)O [5HT, 5-hydroxyl-L-tryptophan]
concentration for discriminating between wild type and ASA2 expressing Arabidopsis germinating seedlings [7]: 5HT 200 μM

Cc1ccc(N)c(C(=O)O)c1 [5MA, 5-methylanthranilate]
concentration for discriminating between wild type and ASA2 expressing tobacco shoot producing leaf discs [6]: 5MA 800 μM

COc1ccc2[nH]ccc2c1 [5MI, 5-Methoxyindole]
concentration for discriminating between wild type and ASA2 expressing tobacco shoot producing leaf discs [6]: 5MI 1000 μM

Cc1ccc2[nH]cc(C[C@H](N)C(=O)O)c2c1 [5MT, 5-methyltrypthophan]
concentration for discriminating between wild type and ASA2 expressing Arabidopsis germinating seedlings [7]: 5MT 200 μM

Cc1cccc(N)c1C(=O)O [6MA, 6-methylanthranilate]
concentration for discriminating between wild type and ASA2 expressing tobacco shoot producing leaf discs [6]: 6MA 70 μM

COc1cccc2cc[nH]c12 [7MI, 7-Methoxyindole]
concentration for discriminating between wild type and ASA2 expressing tobacco shoot producing leaf discs [6]: 7MI 1000 μM

C[C@](N)(Cc1c[nH]c2ccccc12)C(=O)O [α-MT, α- methyltrypthophan]
concentration for discriminating between wild type and ASA2 expressing Arabidopsis germinating seedlings [7]: α-MT 20 μM
